Experimental data: publication PMC2362906, “Effects of new 17α-hydroxylase/C17,20-lyase inhibitors on LNCaP prostate cancer cell growth in vitro and in vivo” (British Journal of Cancer, 1999)
Entries after “also recorded” stand apart in the source; their conditions may differ.

How the values were obtained:
LNCaP cells [1] = test: Testosterone-stimulated wild-type LNCaP cell growth; assay type: cell-based, human; settings: 0.1 nM testosterone, 9 days; for Effect on testosterone-stimulated cell growth (words): 0.5-5.0 μM compound
Excerpt: (§1) Prostate cancer is the most common malignancy and the second leading cause of cancer-related deaths among men in the US and the UK (Shibata et al, 1998). […] Steroidal 17-hydroxylase/C17,20 -lyase (P450c17) (EC 1.14.99.0) was selected as the target enzyme for inhibition, as this is a key regulatory enzyme of androgen synthesis. P450c17 catal- yses two sequential reactions in the steroid biosynthetic pathway and converts pregnenolone and progesterone to the C-19 andro- gens, dehydroepiandrosterone and androstenedione respectively. This enzyme has an identical amino acid sequence in testicular and adrenal tissues (Chung et al, 1987). […] In order to evaluate the effectiveness of these inhibitors we developed a multi-step system, which utilized the LNCaP human prostate cancer cell line. LNCaP cells remain the only androgen receptor (AR)-positive prostate cancer cell line, that can be readily grown in tissue culture (Horoszewicz et al, 1983). These cells respond to androgens with increased cell proliferation and elevated expression of prostate specific antigen (PSA) (Berns et al, 1993). LNCaP cells at early passages are not only androgen-responsive, but also androgen- dependent (Pousette et al, 1997). This is similar to the situation in most tumours of prostatic cancer patients, which are initially highly responsive and dependent on androgens. […] Therefore, we employed LNCaP cells as a model for evaluating the effectiveness of our new inhibitors of androgen synthesis. In this study the compounds selected for evaluation were two groups of azolyl steroids. […] Here we report on the application of LNCaP-CYP17-transfected cells for determining the inhibitory potencies of the new compounds against the P450c17 enzyme. […] We designed and evaluated two groups of azolyl steroids: 5-non-competitive inhibitors (5NCIs), VN/63-1, VN/85-1, VN/87-1 and their corresponding 4 derivatives (4NCIs), VN/107-1, VN/108-1 and VN/109-1. The human P450c17 gene was transfected into LNCaP human prostate cancer cells, and the resultant LNCaP- CYP17 cells were utilized to evaluate the inhibitory potency of the new azolyl steroids. […] We further evaluated our inhibitors in male severe combined immuno- deficient mice bearing LNCaP tumour xenografts. […] We also utilized wild-type LNCaP prostatic carcinoma cells for evaluating the direct effects of new azolyl steroids on proliferation of these cells in vitro and in vivo. MATERIALS AND METHODS Materials The human prostate cancer cell line LNCaP was obtained from the American Type Culture Collection (Rockville, MD, USA). RPMI- 1640 medium, trypsin-EDTA (0.25%/0.02%), penicillin/strepto- mycin (P/S), geniticin (G418), and LipofectAMINE were from Gibco-BRL (Grand Island, NY, USA). Fetal bovine serum (FBS) was obtained from Summit Biotechnology Inc. (Fort Collins, CO, USA) and steroid-free FBS was prepared as described previously (Klus et al, 1996). Phenol red free IMEM and trypsin-versine were purchased from Biofluids Inc. (Rockville, MD, USA). Chloroform and acetonitrile were purchased from JT Baker, Inc (Phillipsburg, NJ, USA). Hydroxypropyl cellulose (HPC) was purchased from Sigma Chemical Co. (St Louis, MO, USA). The PSA enzyme- linked immunusorbent assay (ELISA) kit was from DSL Inc. (Webster, TX, USA). Matrigel was generously supplied by Dr Hynda Kleinman (NIH, Bethesda, MD, USA). Inhibitors of androgen synthesis: VN/63-1, VN/85-1, VN/87-1, VN/107-1, VN/108-1 and VN/109-1 were synthesized in our labo- ratory as previously described (Njar et al, 1998). […] Metribolone [17-methyl-3 H]-R1881 ([3 H]-R1881: specific activity 86 Ci mmol-1 ) was purchased from Dupont NEN (Boston, MA, USA).

[2] = molecular target: T1, human 17α-hydroxylase/C17,20-lyase (P450c17) expressed in LNCaP-CYP17 cells (Homo sapiens, UniProt P05093); test: [3H]-acetic acid releasing assay (AARA) with LNCaP-CYP17 cells; assay type: cell-based; settings: LNCaP-CYP17 cells, 7 μM [21-3H]17-OHP5, 16 h; mean ± s.e.m., three experiments
T1 sequence (P05093 9-508 limits assumed): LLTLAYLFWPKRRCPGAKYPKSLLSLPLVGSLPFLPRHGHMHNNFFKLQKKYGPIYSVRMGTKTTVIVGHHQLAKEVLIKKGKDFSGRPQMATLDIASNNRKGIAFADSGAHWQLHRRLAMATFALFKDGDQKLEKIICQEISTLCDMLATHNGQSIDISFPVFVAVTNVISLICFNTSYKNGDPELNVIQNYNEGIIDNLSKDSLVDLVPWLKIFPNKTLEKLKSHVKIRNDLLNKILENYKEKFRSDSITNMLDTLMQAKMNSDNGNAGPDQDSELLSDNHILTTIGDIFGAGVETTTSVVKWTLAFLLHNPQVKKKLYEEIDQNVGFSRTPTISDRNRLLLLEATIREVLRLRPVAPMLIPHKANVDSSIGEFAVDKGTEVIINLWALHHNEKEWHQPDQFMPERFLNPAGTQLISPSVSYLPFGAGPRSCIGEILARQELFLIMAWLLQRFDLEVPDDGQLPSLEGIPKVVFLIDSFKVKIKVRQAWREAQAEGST

LNCaP cells [3] = test: DHT-stimulated wild-type LNCaP cell growth; assay type: cell-based, human; settings: 0.03 nM DHT, 9 days; for Effect on DHT-induced cell proliferation: 0.5-5.0 μM compound
Excerpt: as §1

LNCaP tumour xenografts = test: LNCaP tumour xenograft growth in male SCID mice; assay type: in vivo; settings: 50 mg kg-1 day-1, 28 days
Excerpt: as §1

serum PSA = test: Serum PSA (ELISA) in LNCaP tumour-bearing SCID mice; assay type: in vivo, male SCID mice; settings: first experiment, 50 mg kg-1 day-1, 28 days
Excerpt: (§2) Prostate cancer is the most common malignancy and the second leading cause of cancer-related deaths among men in the US and the UK (Shibata et al, 1998). […] Steroidal 17-hydroxylase/C17,20 -lyase (P450c17) (EC 1.14.99.0) was selected as the target enzyme for inhibition, as this is a key regulatory enzyme of androgen synthesis. P450c17 catal- yses two sequential reactions in the steroid biosynthetic pathway and converts pregnenolone and progesterone to the C-19 andro- gens, dehydroepiandrosterone and androstenedione respectively. This enzyme has an identical amino acid sequence in testicular and adrenal tissues (Chung et al, 1987). […] In order to evaluate the effectiveness of these inhibitors we developed a multi-step system, which utilized the LNCaP human prostate cancer cell line. LNCaP cells remain the only androgen receptor (AR)-positive prostate cancer cell line, that can be readily grown in tissue culture (Horoszewicz et al, 1983). These cells respond to androgens with increased cell proliferation and elevated expression of prostate specific antigen (PSA) (Berns et al, 1993). LNCaP cells at early passages are not only androgen-responsive, but also androgen- dependent (Pousette et al, 1997). This is similar to the situation in most tumours of prostatic cancer patients, which are initially highly responsive and dependent on androgens. […] Therefore, we employed LNCaP cells as a model for evaluating the effectiveness of our new inhibitors of androgen synthesis. In this study the compounds selected for evaluation were two groups of azolyl steroids. […] Here we report on the application of LNCaP-CYP17-transfected cells for determining the inhibitory potencies of the new compounds against the P450c17 enzyme. […] We designed and evaluated two groups of azolyl steroids: 5-non-competitive inhibitors (5NCIs), VN/63-1, VN/85-1, VN/87-1 and their corresponding 4 derivatives (4NCIs), VN/107-1, VN/108-1 and VN/109-1. The human P450c17 gene was transfected into LNCaP human prostate cancer cells, and the resultant LNCaP- CYP17 cells were utilized to evaluate the inhibitory potency of the new azolyl steroids. […] We further evaluated our inhibitors in male severe combined immuno- deficient mice bearing LNCaP tumour xenografts. […] We also utilized wild-type LNCaP prostatic carcinoma cells for evaluating the direct effects of new azolyl steroids on proliferation of these cells in vitro and in vivo. MATERIALS AND METHODS Materials The human prostate cancer cell line LNCaP was obtained from the American Type Culture Collection (Rockville, MD, USA). RPMI- 1640 medium, trypsin-EDTA (0.25%/0.02%), penicillin/strepto- mycin (P/S), geniticin (G418), and LipofectAMINE were from Gibco-BRL (Grand Island, NY, USA). Fetal bovine serum (FBS) was obtained from Summit Biotechnology Inc. (Fort Collins, CO, USA) and steroid-free FBS was prepared as described previously (Klus et al, 1996). Phenol red free IMEM and trypsin-versine were purchased from Biofluids Inc. (Rockville, MD, USA). Chloroform and acetonitrile were purchased from JT Baker, Inc (Phillipsburg, NJ, USA). Hydroxypropyl cellulose (HPC) was purchased from Sigma Chemical Co. (St Louis, MO, USA). The PSA enzyme- linked immunusorbent assay (ELISA) kit was from DSL Inc. (Webster, TX, USA). Matrigel was generously supplied by Dr Hynda Kleinman (NIH, Bethesda, MD, USA). […]

serum testosterone = test: Serum testosterone (RIA) in SCID mice; assay type: in vivo, male SCID mice; settings: 28 days of treatment, 50 mg kg-1 day-1
Excerpt: as §1

serum DHT = test: Serum DHT (RIA) in SCID mice; assay type: in vivo, male SCID mice; settings: 28 days of treatment, 50 mg kg-1 day-1
Excerpt: as §1

[4] = molecular target: human prostatic 5-reductase; design: method as in Njar et al, 1998; settings: human prostatic microsomes; reported previously; ref Njar et al, 1998; cited from earlier work
LNCaP cells [5] = test: LNCaP cell growth in steroid-free medium; assay type: cell-based, human; settings: high concentrations (2.5 and 5.0 μM), 9 days
Excerpt: as §2, with “USA).” for “USA). Fetal bovine serum (FBS) was obtained from Summit Biotechnology Inc. (Fort Collins, CO, USA) and steroid-free FBS was prepared as described previously (Klus et al, 1996). Phenol red free IMEM and trypsin-versine were purchased from Biofluids Inc. (Rockville, MD, USA). Chloroform and acetonitrile were purchased from JT Baker, Inc (Phillipsburg, NJ, USA). Hydroxypropyl cellulose (HPC) was purchased from Sigma Chemical Co. (St Louis, MO, USA). The PSA enzyme- linked immunusorbent assay (ELISA) kit was from DSL Inc. (Webster, TX, USA). Matrigel was generously supplied by Dr Hynda Kleinman (NIH, Bethesda, MD, USA).”

[6] = Table 2, first experiment, control 1.043
[7] = Table 2, first experiment, control 243.8
[8] = Table 3, second experiment, control 239.2
[9] = Table 3, second experiment, control 0.205

| SMILES | IC50 [2] | Serum Testosterone (serum testosterone; [6]) | Serum DHT (serum DHT; [7]) | IC50 [4] | Effect on testosterone-stimulated cell growth (words) (LNCaP cells [1]) | Effect on DHT-induced cell proliferation (LNCaP cells [3]) | Serum DHT (serum DHT; [8]) | Effect on tumour growth (words) (LNCaP tumour xenografts; second experiment) | Serum Testosterone (serum testosterone; [9]) | other results |
| --- | --- | --- | --- | --- | --- | --- | --- | --- | --- | --- |
| C[C@]12CC[C@H]3[C@@H](CCC4=CC(=O)CC[C@@]43C)[C@@H]1CC[C@@H]2O [Testosterone, reference compound] | – | – | – | – | – | – | – | – | – | Stimulation of LNCaP cell proliferation compared to vehicle-treated control cells (LNCaP cells [1]): 5.8 fold |
| C[C@]12CC[C@H](O)CC1=CC[C@@H]1[C@@H]2CC[C@]2(C)C(n3ccnc3)=CC[C@@H]12 [VN/85-1] | 1.25 ± 0.44 nM | 0.141 ng/mL | 143.7 pg/mL | > 5000 nM | – | – | – | – | – | Concentration that completely inhibited the growth stimulatory effect of testosterone (LNCaP cells [1]): 1.0 µM; Concentration that completely blocked DHT stimulation (LNCaP cells [3]): 1.0 µM; Reduction of tumour weights compared to vehicle-treated mice (LNCaP tumour xenografts; first experiment): 27%; Serum PSA levels versus control (serum PSA): significantly lower |
| C[C@]12CCC(=O)C=C1CC[C@@H]1[C@@H]2CC[C@]2(C)C(n3ccnn3)=CC[C@@H]12 [VN/109-1] | 5.39 nM | – | – | 198 nM | moderate inhibitory effect; also recorded: biphasic growth responses | least effective inhibitors of androgen-induced cell pro- liferation | 228.4 pg/mL | – | – | Stimulation of LNCaP tumour growth compared to control mice (LNCaP tumour xenografts; second experiment): 110% |
| CC(=O)N1CCN(c2ccc(OCC3COC(Cn4ccnc4)(c4ccc(Cl)cc4Cl)O3)cc2)CC1 (stereo not shown) [Ketoconazole, reference compound] | – | 1.526 ng/mL | 224.3 pg/mL | > 5000 nM | stimulate cell proliferation at low concentrations | – | 218.0 pg/mL | Neither VN/63-1, VN/107 nor ketoconazole had any appreciable effects | 0.298 ng/mL | Effect on testosterone-stimulated cell growth (words) (LNCaP cells [1]; listed as ketoconazole): biphasic growth responses; Stimulation of cell growth compared to DHT-treated cells (LNCaP cells [3]): 10-20%; Stimulation of LNCaP cell growth in steroid-free media (LNCaP cells [5]): 30-40% |
| C[C@]12CCC(=O)C[C@@H]1CC[C@@H]1[C@@H]2CC[C@]2(C)[C@@H](O)CC[C@@H]12 [DHT, Dihydrotestosterone, reference compound] | – | – | – | – | – | – | – | – | – | Stimulation of LNCaP cell proliferation compared to vehicle-treated cells (LNCaP cells [3]): 3.2 fold |
| C[C@]12CCC(=O)C=C1CC[C@@H]1[C@@H]2CC[C@]2(C)C(n3cncn3)=CC[C@@H]12 [VN/107-1] | 12.4 nM | – | – | 152 nM | ineffective against testosterone-stimulated cell growth | least effective inhibitors of androgen-induced cell pro- liferation | 180.2 pg/mL | no significant effects on tumour growth or tumour weights | 0.153 ng/mL | Effect on tumour growth (words) (LNCaP tumour xenografts; second experiment, listed as VN/107): Neither VN/63-1, VN/107 nor ketoconazole had any appreciable effects |
